Measured values as given in patent publication US9725490B2, “ERAP1-derived peptide and use thereof” (TOKUSHIMA UNIVERSITY, priority 2011, dated 2017).

What was measured:
Format in all cases: cell-based, human
[1] = system: generation of ROS in MCF-7 cells; assay: ROS production in the mitochondria, DHR123 flow cytometry
Method: FIG. 41-2 is a diagram illustrating that ROS production in the mitochondria by E2 stimulation is induced through ERAP1. […] MCF-7 cells, and MCF-7 cells suppressed for expression of ERAP1, and HCC1395 cells were treated with 10 μM DHR123 for 15 minutes. The cells were washed, and then stimulated with 10 μM ERAP1-peptide and 10 nM E2 for 24 hours, and analyzed by flow cytometry. Cells treated with 1 mM H2O2 for 24 hours were used as a positive control. The data are representative examples of two independent experiments.

MCF-7 cells [2] = assay: E2-independent cell proliferation, MCF-7; conditions: 1, 3, 5 and 10 μM, 24 hours
Method: FIG. 15 is a diagram illustrating the effects of the ERAP1-peptide on E2-independent cell functions. […] MCF-7 cells were treated with the ERAP1-peptide in each concentration (1, 3, 5 and 10 μM) or 10 nM tamoxifen as a positive control for 24 hours. […] MCF-7 cells were stimulated with 10 μM ERAP1-peptide treatment only, 10 nM E2 treatment only, or 10 μM ERAP1-peptide treatment and immediately 10 nM E2 for 24 hours, and the cytoplasm fraction was isolated from each of the treated cells. Then, the cytoplasm fraction was immunoprecipitated with anti-ERα antibody. Furthermore, with respect to the obtained sample, Western blotting analysis was performed using the antibodies shown in the figure.
MCF-7 cells or ZR-75-1 cells were seeded in 2×10^4/well, and KPL-3C cells were seeded in 1×10^4/well on a 48-well plate, and stood in a CO2 incubator for 24 hours. Then, for MCF-7 cells, the culture medium was exchanged with DMEM/F12 culture medium containing 10% FBS (Nichirei Biosciences, Tokyo, Japan), 1% antibiotic/antimycotic solution (Invitrogen), 0.1 mM NEAA48 (invitrogen), 1 mM sodium pyruvate and 10 μg/ml insulin (Sigma, St. Louis, Mo., USA) and not containing phenol red, and the cells were further pre-cultured for 24 hours. […] Then, 100 μl from each well was moved to a 96-well plate, and the absorbance at 450 nm was measured with a microplate reader.

MCF-7 cells [3] = assay: E2-dependent cell proliferation assay (MTT/CCK-8), MCF-7
Method: FIG. 6-1 is a diagram illustrating that ERAP1-peptide treatment suppresses ERα-dependent cell proliferation of breast cancer cell lines. (A) and (B) show the results of MTT assay by which the inhibition effect of the ERAP1-peptide in the E2-dependent cell proliferation was evaluated. MCF-7 cells were treated with the ERAP1-peptide (A, B) the ERAP1-scramble peptide (B) or the ERAP1-mutant peptide (B).
FIG. 7-1 is a diagram illustrating that ERAP1-peptide treatment suppresses ERα-dependent cell proliferation of breast cancer cell lines. […] KPL-3C cells were treated with the ERAP1-peptide, the scramble peptide or the mutant peptide. Then, immediately, the cells were stimulated with 10 nM E2 for 24 hours. […] Then, immediately, the cells were stimulated with 10 nM E2. Then, the ERAP1-peptide was added every day for […]. […] The arrow indicates addition of the ERAP1-peptide.
FIG. 7-3 is a diagram illustrating that ERAP1-peptide treatment suppresses ERα-dependent cell proliferation of breast cancer cell lines. […] MCF-7 cells were treated with 10 μM ERAP1-peptide. Then, immediately, the cells were stimulated with 10 nM E2 (white square). Then, 10 μM ERAP1-peptide was added every day for four days (black square).
FIG. 20 is a diagram illustrating the results of evaluations for the influence of the difference of the sequence on E2-dependent cell proliferation suppression effect. […] Then, immediately, the cells were stimulated with E2 for 24 hours.
MCF-7 cells were suspended in MEM (Invitrogen, Carlsbad, Calif., USA) reinforced with 10% FBS (Nichirei Biosciences, Tokyo, Japan), 1% antibiotic/antimycotic solution (Invitrogen), 0.1 mM NEAA (Tnvitrogen), 1 mM sodium pyruvate and 10 μg/ml insulin (Sigma, St. Louis, Mo., USA). Then, the cell suspension was seeded in a 48-well plate (2×10^4 cells/200 μl), a 24-well plate (1×10^5 cells/1 ml), a 6-well plate (5×10^5 cells/2 ml) or 10 cm dish (2×10^6 cells/10 ml). The cells were maintained at 37° C. in humidified atmosphere containing 5% carbon dioxide. On the next day of the seeding, the culture medium was exchanged with phenol red-free DMEM/F12 (Invitrogen) reinforced with FBS, an antibiotic/antimycotic solution, NEAA, sodium pyruvate and insulin. After 24 hours, the cells were treated with 10 nM 17β estradiol (E2, Sigma). The ERAP-1 peptide was added just before the E2 stimulation in the inhibition test.
Using Cell-Counting Kit-8 (CCK-8, Dojindo, Kumamoto, Japan), the cell proliferation assay was performed. […] Then, the absorbance at 450 nm was measured and the number of living cells in each well was calculated.
The cell proliferation assay was evaluated using Cell-Counting Kit-8 (CCK-8, Dojindo, Kumamoto, Japan). […] Then, 100 μl from each well was moved to a 96-well plate, and the absorbance at 450 nm was measured with a microplate reader.

SMILES: CSCC[C@H](NC(=O)[C@H](CCC(N)=O)NC(=O)[C@H](CCCNC(=N)N)NC(=O)[C@H](CCCNC(=N)N)NC(=O)[C@H](CCCNC(=N)N)NC(=O)[C@H](CCCNC(=N)N)NC(=O)[C@H](CCCNC(=N)N)NC(=O)[C@H](CCCNC(=N)N)NC(=O)[C@H](CCCNC(=N)N)NC(=O)[C@H](CCCNC(=N)N)NC(=O)[C@H](CCCNC(=N)N)NC(=O)[C@H](CCCNC(=N)N)NC(=O)[C@@H](N)CCCNC(=N)N)C(=O)N[C@@H](CC(C)C)C(=O)N[C@@H](CO)C(=O)N[C@@H](CC(=O)O)C(=O)N[C@@H](CC(C)C)C(=O)N[C@H](C(=O)N[C@@H](CC(C)C)C(=O)N[C@@H](CCC(N)=O)C(=O)N[C@@H](CC(C)C)C(=O)N[C@@H](CCCNC(=N)N)C(=O)N[C@@H](CCC(N)=O)C(=O)N[C@@H](CCCNC(=N)N)C(=O)O)[C@@H](C)O [ERAP1-peptide]
- generation of ROS ([1]; MCF-7 in which expression of ERAP1 was suppressed): had no influence on the generation of ROS
- generation of ROS ([1]; MCF-7 transfected with control siRNA, 10 μM, E2 24 hours): generation of ROS was remarkably suppressed
- cell proliferation in the absence of E2 (MCF-7 cells [2]): dose-dependent cell proliferation suppression effect
- E2-dependent cell proliferation (MCF-7 cells [3]; 10 nM E2, up to 24 hours): dose-dependently suppressed the E2-dependent cell proliferation
- proliferation of the E2-dependent breast cancer cells, repeated administration (MCF-7 cells [3]; 5 μM and 10 μM, every 24 hours for four days): completely suppressed
- duration of E2-dependent proliferation suppression effect (MCF-7 cells [3]; 10 μM single addition): complete E2-dependent proliferation suppression effect was recognized up to 24 hours
